# In patent US11040028B2, “Penicinotam derivative, preparation method and use thereof” (OCEAN UNIVERSITY OF CHINA, priority 2017, dated 2021):
# Tests used:
# [1] = test system: human lung fibroblasts HFL1; test: Anti-fibrosis activity test: inhibition of proliferation of human lung fibroblasts HFL1 (CCK-8); assay type: cell-based; conditions: Homo sapiens, HFL1, 48 h, human lung fibroblasts HFL1, CCK-8, 48 hours
# Method in brief: (§1)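 Exponentially growing cells, 2×10^4 cells/mL, attached 24 h. Dosed 48 h across concentrations (n=3). CCK-8 2 h → A450; IR vs blank; IC50.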
# [2] = test system: human embryonic lung fibroblast IMR-90; test: Anti-fibrosis activity test: inhibition of proliferation of human embryonic lung fibroblast IMR-90 (CCK-8); assay type: cell-based; conditions: human embryonic lung fibroblast IMR-90, CCK-8, 48 hours
# Method in brief: as §1
# [3] = test system: human fibrosarcoma cells HT-1080; test: Anti-fibrosis activity test: inhibition of proliferation of human fibrosarcoma cells HT-1080 (CCK-8); assay type: cell-based; conditions: Homo sapiens, HT-1080, 48 h, human fibrosarcoma cells HT-1080, CCK-8, 48 hours
# Method in brief: as §1
# [4] = test system: human hepatic stellate cells LX-2; test: Anti-fibrosis activity test: inhibition of proliferation of human hepatic stellate cells LX-2 (CCK-8); assay type: cell-based; conditions: Homo sapiens, 48 h, human hepatic stellate cells LX-2, CCK-8, 48 hours
# Method in brief: as §1
# [5] = test system: cardiac fibroblast RAT-iCell-C002; test: Anti-fibrosis activity test: inhibition of proliferation of cardiac fibroblast RAT-iCell-C002 (CCK-8); assay type: cell-based; conditions: Cardiac fibroblast, 48 h, cardiac fibroblast RAT-iCell-C002, CCK-8, 48 hours
# Method in brief: as §1
# BHK-21 cells = test: Anti-fibrosis activity test: inhibition of BHK-21 cell proliferation (CCK-8); assay type: cell-based; conditions: Mesocricetus auratus, BHK-21, 48 h, CCK-8, 48 hours after administration
# Method in brief: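 Read-out: CCK-8 absorbance at 450 nm after 2 h, giving proliferation inhibition (1−Ai/Ao)×100% versus blank control, from which IC50 was derived. Cells had been treated with compounds for 48 h after 24 h adherence at 37° C. Pirfenidone served as positive control.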
# [6] = test system: human dermal fibroblasts CCC-ESF-1; test: Anti-fibrosis activity test: inhibition of proliferation of human dermal fibroblasts CCC-ESF-1 (CCK-8); assay type: cell-based; conditions: Fibroblast; human dermal fibroblasts CCC-ESF-1, CCK-8, 48 hours
# Method in brief: as §1
# [7] = pirfenidone, stated as known property; cited from earlier work
structure (smiles),measurement,setting,value
"Cc1ccc(=O)n(-c2ccccc2)c1 [pirfenidone, reference compound]",IC50,[1],5 to 20 mM
same,IC50,[2],20 to 100 mM
same,IC50,[3],20 to 100 mM
same,IC50,[4],20 to 100 mM
same,IC50,[5],20 to 100 mM
same,IC50,BHK-21 cells,20 to 100 mM
same,IC50,[6],20 to 100 mM
same,phototoxic reactions,[7],"phototxic reactions, which are produced by pirfenidone"
